Where a name gives a salt, the structure may show the parent alone. Read-outs that look alike come from different tables or passages of the source.

One data set relates to wheat seeds. Briefly: Pre-sowing seed treatment, sowing qualities of wheat seeds. It is filed as in vivo. To be noted: for germination energy: control 82; for laboratory germination: control 85.7. The method, then: (§1) When evaluating the effectiveness of treatment of wheat, alfalfa, barley, rice, and sorghum seeds as fungicidal and bactericidal agents with preparation compounds at concentrations of 10, 20, and 40 mmol, their effect on the suppression of seed infection was evaluated.
(§2) […] The sowing qualities were evaluated (germination energy for 3–4 days, laboratory germination for 7–8 days) according to GOST 12038-84 [60]. Sowing qualities of seeds were determined in wet chambers. According to the sample, 50 seeds were taken in 4-fold repetition.

For a further data set, the system named is alfalfa seeds. As to the kind of experiment: Pre-sowing seed treatment, sowing qualities of alfalfa seeds. It is filed as in vivo. As to conditions: for germination energy / laboratory germination: control 76. The method, then:
as §1, §2

Data set [1] relates to fungal microflora (mushrooms) on alfalfa seeds. As to the kind of experiment: Growth of fungal microflora on treated alfalfa seeds. The class given is cell-based. The method, then:
During phytopathological analyses of agricultural crops, the species composition of fungal and bacterial microflora was established. Laboratory studies were carried out on two nutrient media potato-agar (ingredients: potatoes—200 g; agar-agar—20 g; distilled water—1000 mL.) and potato-dextrose agar (ingredients: potatoes—200 g;dextrose—20 g; agar-agar—20 g; distilled water—1000 mL), according to the guidelines.
When evaluating the effectiveness of treatment of wheat, alfalfa, barley, rice, and sorghum seeds as […], their effect on the suppression of seed infection was evaluated.

The subject of the next data set is barley seeds. As to the kind of experiment: Pre-sowing seed treatment, sowing qualities of barley seeds. The class given is in vivo. As to conditions: for germination energy / laboratory germination: control 95.2. As to the method:
as §1, §2

The subject of a further data set is rice seeds. Briefly: Pre-sowing seed treatment, sowing qualities of rice seeds. As to conditions: for germination energy: control 71.4; for laboratory germination: control 95.2. The class given is in vivo. As to the method: as §1, §2
For the next data set, the system named is sorghum seeds. Briefly: Pre-sowing seed treatment, sowing qualities of sorghum seeds. As to conditions: for germination energy: control 52.3; for laboratory germination: control 57. The class given is in vivo. The method, then: as §1, §2
The test system of the next data set is SH-SY5Y (neuroblastoma). Briefly: Cell viability, MTT test. The class given is cell-based, Human. To be noted: Homo sapiens, SH-SY5Y, test range 0.1 to 100 μM, read-out: IC50 (concentration causing 50% inhibition of cell population growth). The method, then: (§3) In this work, the cytotoxic potential of the water-soluble salts based on benzofuroxan was determined by the effect of compounds on the survival of the cell tumor origin cultures (SH-SY5Y, Hep2, A549, HeLa) using the MTT test. To understand how the synthesized compounds can influence the healthy microenvironment in the body, the effect of substances on the viability of a normal Hek 293 cell culture was additionally evaluated.
(§4) Human cell cultures of tumor origin—SH-SY5Y (neuroblastoma), HeLa (cervical tumor), Hep-2 (larynx carcinoma), A549 (adenocarcinomic human alveolar basal epithelial cells)—and normal cell line Hek 293 (human embryonic kidneys), provided by the Laboratory of Tumor Cell Genetics of the Scientific Research Institute of Carcinogenesis, N.N. Blokhin National Medical Research Center of Oncology, as well as the Institute of Cytology of the Russian Academy of Sciences, were grown in a nutrient medium DMEM (PanEco, Moscow, Russia) and MEM (PanEco, Moscow, Russia), containing fetal bovine serum (10% by volume) (ThermoFisher Scientific, Paisley, UK), Glutamax (2 mM) (Gibco, Scotland, UK), and penicillin-streptomycin (1% by volume) (PanEco, Moscow, Russia). The cultivation was carried out at 37 °C in a humidified CO2 atmosphere (5%).
(§5) Cell viability was determined by MTT test. Cells were seeded in a 96-well plate in the amount of 1 × 10^4 cells/200µLof complete nutrient medium and cultured at 37 °C in CO2 (5%). After 24 h of incubation, various concentrations of test compounds in the range from 0.1 to 100 μM, were added to the cell cultures, and then the cells were cultured under the same conditions for 24 and 72 h. For each concentration, the experiment was carried out in triplicate.
(§6) All compounds were dissolved in DMSO, then diluted with the medium to the required concentration. […] The DMSO was also added to the control wells in a volume of 1%. After the incubation time, MTT (3-(4,5-dimethylthiazol-2-yl)-2,5-diphenyltetrazolium bromide, 5 mg/mL) was added to each well and plates were additionally incubated for 2 h (until the characteristic color appeared).
(§7) Using a plate analyzer (Cytation3, BioTech Instruments Inc., Winooski, VT, USA), the optical density was determined at 530 nm. The concentration value causing 50% inhibition of cell population growth (IC50) was determined from dose-dependent curves.
(Formazan colour is commonly taken as a measure of viable cells.)

Data set [2] concerns A549 (adenocarcinomic human alveolar basal epithelial cells). As to the kind of experiment: Cell viability, MTT test. The class given is cell-based. As to conditions: test range 0.1 to 100 μM, read-out: IC50 (concentration causing 50% inhibition of cell population growth). As to the method:
as §3, §4, §5, §6, §7

A further data set has as its system HeLa (cervical tumor). Briefly: Cell viability, MTT test. It is filed as cell-based. As to conditions: Homo sapiens, test range 0.1 to 100 μM, read-out: IC50 (concentration causing 50% inhibition of cell population growth). As to the method: as §3, §4, §5, §6, §7
The next data set deals with Hep-2 (larynx carcinoma). As to the kind of experiment: Cell viability, MTT test. The class given is cell-based. As to conditions: Homo sapiens, HEp-2, test range 0.1 to 100 μM, read-out: IC50 (concentration causing 50% inhibition of cell population growth). As to the method: as §3, §4, §5, §6, §7
Data set [3] has as its system Hek 293 (human embryonic kidneys). As to the kind of experiment: Cell viability, MTT test, normal cell line. The class given is cell-based. As to conditions: HEK293, Hek 293 normal cells, test range 0.1 to 100 μM, read-out: IC50 (concentration causing 50% inhibition of cell population growth). As to the method:
as §3, §4, §5, §6, §7

In general, melting point refers to the temperature, or range, at which the solid turns liquid. `Cl.O=[N+]([O-])c1c(Cl)cc2c(no[n+]2[O-])c1NCCN1CCCCC1` showed a melting point of 106 to 107 °C.
The same measure, in the same setting: in the case of `O=[N+]([O-])c1c(Cl)cc2c(no[n+]2[O-])c1NCCN1CCOCC1` (as salt: chloride) [4d, 6-chloro-4-(2-(morpholino-4-ium)ethylamino)-5-nitrobenzo[c][1,2,5]oxadiazole 1-oxide chloride] it was 186 to 187 °C.
For `CN(C)Cc1ccccc1Nc1c([N+](=O)[O-])c(Cl)cc2c1no[n+]2[O-]` [3a, 6-chloro-4-(2-((dimethylamino)methyl)phenylamino)-5-nitrobenzo[c][1,2,5]oxadiazole 1-oxide], the melting point was 152 to 153 °C (dec.).
The same measure, in the same setting: under `CN(C)Cc1cccc(Nc2c([N+](=O)[O-])c(Cl)cc3c2no[n+]3[O-])c1` [3b, 6-chloro-4-(3-((dimethylamino)methyl)phenylamino)-5-nitrobenzo[c][1,2,5]oxadiazole 1-oxide] stands 118 to 119 °C; under `CN(C)Cc1ccc(Nc2c([N+](=O)[O-])c(Cl)cc3c2no[n+]3[O-])cc1` [3c, 6-chloro-4-(4-((dimethylamino)methyl)phenylamino)-5-nitrobenzo[c][1,2,5]oxadiazole 1-oxide], > 300 °C (dec.).
Same read-out and setting: in the case of `O=[N+]([O-])c1c(Cl)cc2c(no[n+]2[O-])c1NCCN1CCOCC1` [3d, 6-chloro-4-(2-morpholinoethylamino)-5-nitrobenzo[c][1,2,5]oxadiazole 1-oxide] it was 140 to 141 °C.
Same read-out and setting: under `O=[N+]([O-])c1c(Cl)cc2c(no[n+]2[O-])c1NCCN1CCCCC1` [3f, 6-chloro-5-nitro-4-(2-(piperidin-1-yl)ethylamino)benzo[c][1,2,5]oxadiazole 1-oxide] stands 88 to 89 °C.
Take `CN(C)Cc1ccccc1Nc1c([N+](=O)[O-])c(Cl)cc2c1no[n+]2[O-].Cl` [4a, 6-chloro-4-(2-((dimethylammonio)methyl)phenylamino)-5-nitrobenzo[c][1,2,5]oxadiazole 1-oxide chloride]: the melting point is 125 to 126 °C (dec.). Moreover, in the data set on wheat seeds (10 mmol), the “sowing qualities of seeds compared with control” value was “higher than in the case of controls”, the germination energy worked out at 97% and the laboratory germination amounted to 96.5%. Also, in the data set on wheat seeds (50 mmol), the “sowing qualities of seeds compared with control” value was “higher than in the case of controls”, the germination energy was 95% and the laboratory germination came out at 96.5%. In the data set with alfalfa seeds (10 mmol), the “sowing qualities of seeds compared with control” value is given as “higher than controls”, the germination energy is on record as 83% and the laboratory germination is reported as 84.5%. In addition, in the data set with alfalfa seeds (50 mmol), the “sowing qualities of seeds compared with control” value is on record as “higher than controls”, the germination energy is 78% and the laboratory germination is listed as 79.5%. The “effect on fungal microflora” value in [1] (10 mmol) is given as “positive effect on the suppression of fungal microflora”. Further, the “effect on fungal microflora” value in data set [1] (50 mmol) is on record as “positive effect on the suppression of fungal microflora”. For the same compound, in the data set with barley seeds (10 mmol), the “sowing qualities of seeds compared with control” value is reported as “higher than control”, the germination energy was found to be 96% and the laboratory germination is 99%. In addition, in the data set on barley seeds (50 mmol), the “sowing qualities of seeds compared with control” value is listed as “higher than control”, the germination energy is listed as 95% and the laboratory germination was 97.5%. Besides, in the data set on rice seeds (10 mmol), the “sowing qualities of seeds compared with control” value was “better results than the control”, the germination energy is 96% and the laboratory germination is reported as 96.5%. In the data set with rice seeds (50 mmol), the “sowing qualities of seeds compared with control” value was “better results than the control”, the germination energy is given as 99% and the laboratory germination came out at 99%. Further, in the data set on sorghum seeds (10 mmol), the germination energy stood at 47.5% and the laboratory germination is listed as 49.5%. Moreover, in the data set with sorghum seeds (50 mmol), the “sowing qualities of seeds compared with control” value is reported as “at the control level”, the germination energy is recorded as 52.5% and the laboratory germination is 56.5%. Also, in the data set with SH-SY5Y (neuroblastoma) (incubation 24 h), the IC50 was 44 ± 1.09 µM. For the same compound, the IC50 in the data set on SH-SY5Y (neuroblastoma) (incubation 72 h) stood at 35.1 ± 3.85 µM. The IC50 in data set [2] (A549, incubation 24 h) was 95.5 ± 1.01 µM. For the same compound, the IC50 in [2] (A549, incubation 72 h) stood at 92.1 ± 3.58 µM. Further, the IC50 in the data set with HeLa (cervical tumor) (incubation 24 h) amounted to 40.2 ± 2.73 µM. Further, the IC50 with HeLa (cervical tumor) (incubation 72 h) was 32.9 ± 0.56 µM. In the data set with Hep-2 (larynx carcinoma) (Hep2, incubation 24 h), the IC50 is 98.5 ± 2.54 µM. Besides, the IC50 with Hep-2 (larynx carcinoma) (Hep2, incubation 72 h) turned out to be 90.1 ± 3.1 µM. Also, in data set [3] (incubation 24 h), the IC50 turned out to be 38.62 ± 0.1 µM. In data set [3] (incubation 72 h), the IC50 was 16.1 ± 1.86 µM.
Consider `CN(C)Cc1cccc(Nc2c([N+](=O)[O-])c(Cl)cc3c2no[n+]3[O-])c1` [4b, 6-chloro-4-(3-((dimethylammonio)methyl)phenylamino)-5-nitrobenzo[c][1,2,5]oxadiazole 1-oxide chloride], for which the IC50 in the data set with SH-SY5Y (neuroblastoma) (incubation 24 h) amounted to 45.2 ± 2.43 µM; with SH-SY5Y (neuroblastoma) (incubation 72 h) it was 32.1 ± 1.41 µM; in data set [2] (A549, incubation 24 h), 99.2 ± 3.38 µM; in data set [2] (A549, incubation 72 h), 90 ± 2.04 µM; with HeLa (cervical tumor) (incubation 24 h), 46.1 ± 0.56 µM; in the data set on HeLa (cervical tumor) (incubation 72 h), 38.1 ± 1.21 µM. The IC50 with Hep-2 (larynx carcinoma) (Hep2, incubation 24 h) is 97 ± 2.08 µM; with Hep-2 (larynx carcinoma) (Hep2, incubation 72 h), 93.1 ± 2.3 µM; in data set [3] (incubation 24 h), 35 ± 1.35 µM; in data set [3] (incubation 72 h) it was 27.2 ± 2.5 µM.

The record behind these values is article PMC9739695, “Water-Soluble Salts Based on Benzofuroxan Derivatives—Synthesis and Biological Activity” (International Journal of Molecular Sciences, 2022).
